Source: ChEMBL document CHEMBL4308826, “Small Molecule Allosteric Modulators of G-Protein-Coupled Receptors: Drug-Target Interactions” (J Med Chem, 2018)

Experiments:
[1] = target: T1, Proteinase-activated receptor 4 (Homo sapiens, UniProt Q96RI0); test: Antagonist activity at human PAR4
T1 sequence (Q96RI0 whole entry): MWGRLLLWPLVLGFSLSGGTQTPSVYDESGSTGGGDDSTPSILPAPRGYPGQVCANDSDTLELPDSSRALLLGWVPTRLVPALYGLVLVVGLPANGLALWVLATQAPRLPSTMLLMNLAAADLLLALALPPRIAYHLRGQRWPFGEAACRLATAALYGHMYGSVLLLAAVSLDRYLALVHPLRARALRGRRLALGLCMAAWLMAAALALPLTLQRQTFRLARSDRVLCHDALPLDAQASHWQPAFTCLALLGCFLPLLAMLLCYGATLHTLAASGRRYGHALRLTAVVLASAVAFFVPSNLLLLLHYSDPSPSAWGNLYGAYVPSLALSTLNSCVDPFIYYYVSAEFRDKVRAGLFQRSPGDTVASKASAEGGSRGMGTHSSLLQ

[2] = target: T2, Proteinase-activated receptor 2 (Homo sapiens, UniProt P55085); test: Antagonist activity at human PAR2
T2 sequence (P55085 whole entry): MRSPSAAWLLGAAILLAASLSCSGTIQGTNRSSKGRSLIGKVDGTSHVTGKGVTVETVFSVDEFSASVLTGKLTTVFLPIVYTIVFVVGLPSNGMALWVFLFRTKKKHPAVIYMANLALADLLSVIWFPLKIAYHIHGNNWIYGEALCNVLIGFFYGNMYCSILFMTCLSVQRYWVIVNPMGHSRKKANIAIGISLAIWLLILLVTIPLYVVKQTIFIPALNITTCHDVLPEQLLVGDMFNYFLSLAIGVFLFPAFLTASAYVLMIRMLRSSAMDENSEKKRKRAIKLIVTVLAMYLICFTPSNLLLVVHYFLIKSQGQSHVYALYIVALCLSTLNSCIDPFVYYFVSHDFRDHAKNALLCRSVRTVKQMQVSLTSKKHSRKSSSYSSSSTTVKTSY

[3] = target: T3, Proteinase-activated receptor 1 (Homo sapiens, UniProt P25116); test: Antagonist activity at human PAR1
T3 sequence (P25116 whole entry): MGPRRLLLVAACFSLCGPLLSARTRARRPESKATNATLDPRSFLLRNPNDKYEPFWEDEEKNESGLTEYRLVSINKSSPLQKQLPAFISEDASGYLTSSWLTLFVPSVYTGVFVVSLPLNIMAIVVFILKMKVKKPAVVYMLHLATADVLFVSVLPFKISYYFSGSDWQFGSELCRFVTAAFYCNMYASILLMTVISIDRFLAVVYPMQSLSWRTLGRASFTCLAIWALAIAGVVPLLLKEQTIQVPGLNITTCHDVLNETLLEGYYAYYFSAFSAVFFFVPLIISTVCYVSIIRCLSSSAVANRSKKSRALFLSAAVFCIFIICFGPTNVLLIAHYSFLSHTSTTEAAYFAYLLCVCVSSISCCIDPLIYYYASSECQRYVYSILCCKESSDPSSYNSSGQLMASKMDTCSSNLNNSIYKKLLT

IC50 [1]: 380 nM
IC50 [2]: < 2.5 nM
IC50 [3]: > 50000 nM
Structure (SMILES): C[C@@H](C1CCCCC1)n1c(-c2cc3c(cc2Br)OCO3)nc2cc(C(=O)Nc3ccc(C#N)cc3)ccc21
